# Literature values, collected in paper PMC6443429 (Molecular pharmaceutics, 2019).
# Tests used:
# [1] = system: MC1R, B16/F1 melanoma cells
# [2] = system: MC1R, B16/F10 melanoma cells
substance,measurement,setting,value
"1,4,7,10-tetraazacyclononane-1,4,7,10-tetraacetic acid-Gly-Gly-Nle-c[Asp-His-DPhe-Arg-Trp-Lys]-CONH2 (sidechain bridge or staple) [DOTA-GGNle-CycMSHhex]",MC1R binding affinity,[1],nanomolar
same,MC1R binding affinity,[2],nanomolar
